In patent US11253604B2, “Conjugate of methotrexate and peptide” (CAREGEN CO., LTD., priority 2017, dated 2022):

How the values were obtained:
HaCaT keratinocyte lines = assay: Cytotoxicity test: cell proliferation by MTT analysis (Ez-cytox kit); conditions: HaCaT keratinocytes, 3.9 to 500 μM, 48 hours, vs non-treated negative control
NIH3T3 fibroblast lines = assay: as above; conditions: NIH3T3 fibroblasts, 3.9 to 500 μM, 48 hours, vs non-treated negative control

SMILES: CN(Cc1cnc2nc(N)nc(N)c2n1)c1ccc(C(=O)N[C@@H](CCC(=O)O)C(=O)O)cc1 [methotrexate, Methotrexate]
- cytotoxicity (inhibition of cell proliferation) (HaCaT keratinocyte lines): exhibited a significant degree of cytotoxicity
- cytotoxicity (inhibition of cell proliferation) (NIH3T3 fibroblast lines): exhibited a significant degree of cytotoxicity
